According to publication PMC7177897, “Benzylaminoethyureido-Tailed Benzenesulfonamides: Design, Synthesis, Kinetic and X-ray Investigations on Human Carbonic Anhydrases” (International Journal of Molecular Sciences, 2020):

Experiments:
hCA I = molecular target: T1, hCA I (Homo sapiens, UniProt P00915); experiment: stopped-flow CO2 hydration assay; format: biochemical
T1 construct: gene CA1; crystals from hCA I purchased from Sigma-Aldrich, residues 4-260 visible, two monomers per asymmetric unit
Description: stopped-flow CO2 hydration assay on hCA I

hCA XII = molecular target: T2, hCA XII (Homo sapiens, UniProt O43570); experiment: stopped-flow CO2 hydration assay; format: biochemical
T2 construct: gene CA12; recombinant, made by the authors as in earlier publications
Description: stopped-flow CO2 hydration assay on hCA XII

hCA II = molecular target: T3, hCA II (Homo sapiens, UniProt P00918); experiment: stopped-flow CO2 hydration assay; format: biochemical
T3 construct: gene CA2; recombinant, made by the authors as in earlier publications; cytosolic isoform
Description: stopped-flow CO2 hydration assay on hCA II

hCA IX = molecular target: T4, hCA IX (Homo sapiens, UniProt Q16790); experiment: stopped-flow CO2 hydration assay; format: biochemical
T4 construct: gene CA9; recombinant, made by the authors as in earlier publications
Description: stopped-flow CO2 hydration assay on hCA IX

[1] = stopped-flow CO2 hydration assay; format: biochemical, Homo sapiens; details: read-out: hCA I

T1 sequence (P00915 2-261): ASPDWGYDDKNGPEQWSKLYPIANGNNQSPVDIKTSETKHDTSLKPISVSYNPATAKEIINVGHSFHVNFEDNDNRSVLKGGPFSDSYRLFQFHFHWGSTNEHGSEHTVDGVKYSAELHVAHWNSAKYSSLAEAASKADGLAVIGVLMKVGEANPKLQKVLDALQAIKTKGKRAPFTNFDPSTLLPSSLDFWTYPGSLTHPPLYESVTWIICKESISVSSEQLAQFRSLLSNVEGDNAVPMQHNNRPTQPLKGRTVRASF
T2 sequence (O43570 25-354 limits assumed): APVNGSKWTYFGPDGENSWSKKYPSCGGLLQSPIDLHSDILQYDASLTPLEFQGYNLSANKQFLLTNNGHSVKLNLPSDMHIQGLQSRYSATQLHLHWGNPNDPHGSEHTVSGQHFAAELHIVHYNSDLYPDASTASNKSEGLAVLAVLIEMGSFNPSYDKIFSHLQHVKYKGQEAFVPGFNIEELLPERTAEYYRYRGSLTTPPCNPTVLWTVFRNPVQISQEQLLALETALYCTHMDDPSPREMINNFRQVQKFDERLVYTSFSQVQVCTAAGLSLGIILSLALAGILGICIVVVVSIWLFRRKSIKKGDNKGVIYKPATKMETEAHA

| Ki (hCA I) [nM] | Ki (hCA XII) [nM] | Ki (hCA II) [nM] | Ki (hCA IX) [nM] | Ki [1] [nM] | SMILES |
| --- | --- | --- | --- | --- | --- |
| 5850 | 60.7 | 168 | 2320 |  | NS(=O)(=O)c1cccc(NC(=O)NCCNCc2ccc([N+](=O)[O-])cc2)c1 [compound 31, 3-(3-(2-((4-nitrobenzyl)amino)ethyl)ureido) benzenesulfonamide] |
| 24.6 | 58.3 | 3.9 | 20.3 |  | NS(=O)(=O)c1ccc(NC(=O)NCCNCc2ccccc2F)cc1 [compound 19, 4-(3-(2-((2-fluorobenzyl)amino)ethyl)ureido) benzenesulfonamide] |
| 6250 | 317 | 166 | 3510 |  | NS(=O)(=O)c1cccc(NC(=O)NCCNCc2ccc(O)cc2)c1 [compound 30, 3-(3-(2-((4-hydroxybenzyl)amino)ethyl)ureido) benzenesulfonamide] |
| 868 | 71.3 | 53.8 | 4210 |  | NS(=O)(=O)c1cccc(NC(=O)NCCNCc2ccc(F)cc2)c1 [compound 28, 3-(3-(2-((4-fluorobenzyl)amino)ethyl)ureido) benzenesulfonamide] |
| 928 | 772 | 76.3 | > 10000 |  | NS(=O)(=O)c1cccc(NC(=O)NCCNCc2ccccc2)c1 [compound 26, 3-(3-(2-(benzylamino)ethyl)ureido)benzenesulfonamide] |
| 782 | 63.7 | 63.2 | 1150 |  | NS(=O)(=O)c1ccc(NC(=O)NCCNCc2ccc(-c3ccccc3)cc2)cc1 [compound 25, 4-(3-(2-(([1,1′-biphenyl]-4-ylmethyl)amino)ethyl)ureido) benzenesulfonamide] |
| 8910 | 78 | 565 | 1200 |  | CN(C)c1ccc(CNCCNC(=O)Nc2cccc(S(N)(=O)=O)c2)cc1 [compound 32, 3-(3-(2-((4-(dimethylamino)benzyl)amino)ethyl)ureido) benzenesulfonamide] |
| 138 | 97.6 | 5.3 | 116 |  | NS(=O)(=O)c1ccc(NC(=O)NCCNCc2ccc(Br)cc2O)cc1 [compound 24, 4-(3-(2-((4-bromo-2-hydroxybenzyl)amino)ethyl)ureido) benzenesulfonamide] |
| > 10000 | 53.1 | 90.2 | 2610 |  | COc1cc([N+](=O)[O-])ccc1CNCCNC(=O)Nc1cccc(S(N)(=O)=O)c1 [compound 33, 3-(3-(2-((2-methoxy-4-nitrobenzyl)amino)ethyl)ureido)benzenesulfonamide] |
| 582 | 32 | 127 | 458 |  | NS(=O)(=O)c1ccc(NC(=O)NCCNCc2ccc(Cl)cc2)cc1 [compound 17, 4-(3-(2-((4-chlorobenzyl)amino)ethyl)ureido) benzenesulfonamide] |
| 788 | 53.6 | 82.4 | 291 |  | COc1cc([N+](=O)[O-])ccc1CNCCNC(=O)Nc1ccc(S(N)(=O)=O)cc1 [compound 23, 4-(3-(2-((2-methoxy-4-nitrobenzyl)amino)ethyl)ureido)benzenesulfonamide] |
| > 10000 | 688 | 456 |  | > 10000 | NS(=O)(=O)c1cccc(NC(=O)NCCNCc2ccc(-c3ccccc3)cc2)c1 [compound 35, 3-(3-(2-(([1,1’-biphenyl]-4-ylmethyl)amino)ethyl)ureido) benzenesulfonamide] |
| 725 | 53.2 | 9.2 | 30.1 |  | NS(=O)(=O)c1ccc(NC(=O)NCCNCc2ccc(F)cc2)cc1 [compound 18, 4-(3-(2-((4-fluorobenzyl)amino)ethyl)ureido) benzenesulfonamide] |
| 552 | 54.5 | 350 | 1350 |  | NS(=O)(=O)c1ccc(NC(=O)NCCNCc2ccccc2)cc1 [compound 16, 4-(3-(2-(benzylamino)ethyl)ureido) benzenesulfonamide] |
| 1510 | 264 | 73.2 | 343 |  | CN(C)c1ccc(CNCCNC(=O)Nc2ccc(S(N)(=O)=O)cc2)cc1 [compound 22, 4-(3-(2-((4-(dimethylamino)benzyl)amino)ethyl)ureido) benzenesulfonamide] |
| 527 | 77.5 | 96.1 | 317 |  | NS(=O)(=O)c1ccc(NC(=O)NCCNCc2ccc([N+](=O)[O-])cc2)cc1 [compound 21, 4-(3-(2-((4-nitrobenzyl)amino)ethyl)ureido) benzenesulfonamide] |
| 654 | 7.2 | 2.8 | 1920 |  | NS(=O)(=O)c1cccc(NC(=O)NCCNCc2ccc(Br)cc2O)c1 [compound 34, 3-(3-(2-((4-bromo-2-hydroxybenzyl)amino)ethyl)ureido) benzenesulfonamide] |
| 702 | 228 | 36.9 | 3380 |  | NS(=O)(=O)c1cccc(NC(=O)NCCNCc2ccc(Cl)cc2)c1 [compound 27, 3-(3-(2-((4-chlorobenzyl)amino)ethyl)ureido) benzenesulfonamide] |
| 728 | 479 | 33.4 | > 10000 |  | NS(=O)(=O)c1cccc(NC(=O)NCCNCc2ccccc2F)c1 [compound 29, 3-(3-(2-((2-fluorobenzyl)amino)ethyl)ureido) benzenesulfonamide] |
| 781 | 75.8 | 267 | 974 |  | NS(=O)(=O)c1ccc(NC(=O)NCCNCc2ccc(O)cc2)cc1 [compound 20, 4-(3-(2-((4-hydroxybenzyl)amino)ethyl)ureido) benzenesulfonamide] |
